# From ChEMBL document CHEMBL1255511, “Design of a series of bicyclic HIV-1 integrase inhibitors. Part 1: selection of the scaffold” (Bioorg Med Chem Lett, 2010)
# What was measured:
# [1] = target: Human immunodeficiency virus type 1 integrase (Human immunodeficiency virus 1, UniProt Q7ZJM1); test: Inhibition of HIV1 integrase 3'-strand transfer
# [2] = system: Human immunodeficiency virus 1; test: Antiviral activity against HIV1 NL4-3 infected in human Hut78 cells assessed as inhibition of viral replication in presence of 10 % fetal bovine serum; format: functional, organism-based; settings: Human immunodeficiency virus 1, NL4-3, HuT78
# [3] = system: Human immunodeficiency virus 1; test: Antiviral activity against HIV1 NL4-3 infected in human Hut78 cells assessed as inhibition of viral replication in 50 % normal human serum; format: functional, organism-based; settings: Human immunodeficiency virus 1, NL4-3, HuT78, Serum
# Sequence of Human immunodeficiency virus type 1 integrase (Q7ZJM1 whole entry): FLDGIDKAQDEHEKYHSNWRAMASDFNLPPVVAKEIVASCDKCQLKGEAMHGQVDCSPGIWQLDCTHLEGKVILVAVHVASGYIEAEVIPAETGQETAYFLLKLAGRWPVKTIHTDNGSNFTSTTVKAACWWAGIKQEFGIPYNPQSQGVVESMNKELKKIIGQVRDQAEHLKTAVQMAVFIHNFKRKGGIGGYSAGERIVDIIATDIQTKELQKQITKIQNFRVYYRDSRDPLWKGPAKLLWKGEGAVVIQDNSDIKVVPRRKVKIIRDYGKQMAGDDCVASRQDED
Structure (SMILES),IC50 [1] [nM],EC50 [2] [nM],EC50 [3] [nM]
O=C(NCc1ccc(F)cc1)c1nc2c3ccccc3[nH]n2c(=O)c1O,> 10000,,
O=C(NCc1ccc(F)cc1)c1nc2sc3ccccc3n2c(=O)c1O,> 30000,,
O=C(NCc1ccc(F)cc1)c1nc2c(N3CCCS3(=O)=O)cc(N3CCNCC3)cn2c(=O)c1O,,280,43
N#Cc1c[nH]n2c(=O)c(O)c(C(=O)NCc3ccc(F)cc3)nc12,13700,,
Cn1ccc2nc(C(=O)NCc3ccc(F)cc3)c(O)c(=O)n21,> 30000,,
CN1CCN(c2cc(N3CCN(C)S3(=O)=O)c3nc(C(=O)NCc4ccc(F)cc4)c(O)c(=O)n3c2)CC1,,3,4
O=C(NCc1ccc(F)cc1)c1nc2cc(-c3ccccc3)[nH]n2c(=O)c1O,> 100000,,
O=C(NCc1ccc(F)cc1)c1nc2c3ccccc3on2c(=O)c1O,> 10000,,
O=C(NCc1ccc(F)cc1)c1nc2c3ccc(N4CCOCC4)cc3on2c(=O)c1O,> 10000,,
O=C(NCc1ccc(F)cc1)c1nc2[nH]c3ccccc3n2c(=O)c1O,> 100000,,
Cn1c2ccccc2n2c(=O)c(O)c(C(=O)NCc3ccc(F)cc3)nc12,20200,,
O=C(NCc1ccc(F)cc1)c1nc2sccn2c(=O)c1O,33200,,
CN1CCN(c2cc(N(C)S(C)(=O)=O)c3nc(C(=O)NCc4ccc(F)cc4)c(O)c(=O)n3c2)CC1,,19.8,61.5
Cc1nnc(C(=O)NC(C)(C)c2nc(C(=O)NCc3ccc(F)cc3)c(O)c(=O)n2C)o1 [RALTEGRAVIR POTASSIUM],,9.4,7.1
CCN(C(=O)C(=O)N1CCOCC1)c1cccn2c(=O)c(O)c(C(=O)NCc3ccc(F)cc3)nc12,,31,
COc1cccc2c1sc1nc(C(=O)NCc3ccc(F)cc3)c(O)c(=O)n12,> 50000,,

# Further compounds by falling IC50 [1], results first:
IC50 [1] [nM],EC50 [2] [nM],Structure (SMILES),EC50 [3] [nM]
5100,,Cc1cc2nc(C(=O)NCc3ccc(F)cc3)c(O)c(=O)n2o1,
4250,,Cc1cn2c(=O)c(O)c(C(=O)NCc3ccc(F)cc3)nc2s1,
1130,,O=C(NCc1ccc(F)cc1)c1nc2sc(N3CCOCC3)cn2c(=O)c1O,
755,730,O=C(NCc1ccc(F)cc1)c1nc2c(N3CCOCC3)cc(N3CCOCC3)cn2c(=O)c1O,1550
626,,Cn1c2ccccc2c2nc(C(=O)NCc3ccc(F)cc3)c(O)c(=O)n21,
587,,O=C(NCc1ccc(F)cc1)c1nc2ccccn2c(=O)c1O,
445,,O=C(NCc1ccc(F)cc1)c1nc2ccc(Br)cn2c(=O)c1O,
429,12,O=C(NCc1ccc(F)cc1)c1nc2c(OCC3CC3)cc(N3CCOCC3)cn2c(=O)c1O,590
275,80,O=C(NCc1ccc(F)cc1)c1nc2c(OCc3ccc(F)cc3)cc(N3CCOCC3)cn2c(=O)c1O,
245,5,CC(C)Oc1cc(N2CCOCC2)cn2c(=O)c(O)c(C(=O)NCc3ccc(F)cc3)nc12,
195,10.3,O=C(NCc1ccc(F)cc1)c1nc2c(N3CCCS3(=O)=O)cc(N3CCOCC3)cn2c(=O)c1O,18
170,9.5,COc1cc(N2CCOCC2)cn2c(=O)c(O)c(C(=O)NCc3ccc(F)cc3)nc12,1400
135,11,O=C(NCc1ccc(F)cc1)c1nc2c(Cl)cc(N3CCOCC3)cn2c(=O)c1O,158
130,7,O=C(NCc1ccc(F)cc1)c1nc2c(Br)cc(N3CCOCC3)cn2c(=O)c1O,70
130,0.2,O=C(NCc1cc(Cl)cc(Cl)c1)c1nc2c(N3CCCS3(=O)=O)cc(N3CCOCC3)cn2c(=O)c1O,43
110,8,CC(=O)N1CCN(c2cc(Br)c3nc(C(=O)NCc4ccc(F)cc4)c(O)c(=O)n3c2)CC1,40
85,6,O=C(NCc1ccc(F)cc1)c1nc2c(I)cc(N3CCOCC3)cn2c(=O)c1O,50
80,215,O=C(NCc1ccc(F)cc1)c1nc2ccc(N3CCOCC3)cn2c(=O)c1O,
76.8,,Cn1ccn2c(=O)c(O)c(C(=O)NCc3ccc(F)cc3)nc12,
